The assay concerns the target T1, RcsB (Klebsiella pneumoniae, UniProt W1DMM9).
T1 construct: expressed and purified earlier in the laboratory
The experiment in a line: microscale thermophoresis (Monolith NT.[…]). The class given is binding.

Molecules are shown by their SMILES.

T1 sequence (W1DMM9 entry or part of it): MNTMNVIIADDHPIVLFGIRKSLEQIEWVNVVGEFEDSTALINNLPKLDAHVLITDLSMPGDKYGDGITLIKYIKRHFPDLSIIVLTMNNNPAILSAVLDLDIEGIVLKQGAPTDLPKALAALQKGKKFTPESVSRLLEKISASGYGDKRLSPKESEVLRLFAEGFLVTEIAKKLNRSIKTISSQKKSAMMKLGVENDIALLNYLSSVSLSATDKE

Consider `C=CCc1ccc(O)c(OC)c1` [eugenol], for which binding was put at a Kd of 53.4 µM. That is a double-digit micromolar value.

These data come from publication PMC9315372, “Impact of Sub-MIC Eugenol on Klebsiella pneumoniae Biofilm Formation via Upregulation of rcsB” (Frontiers in Veterinary Science, 2022).
